According to patent US20050158277A1 (priority 2001, published 2005):

System: S. typhimurium
Format: cell-based
Details: up to 50 mM, 30 min exposure
Experimental: FIGS. 17 (a-c) Curve of toxicity of benzyl alcohol. Effect of 30 min exposure to increasing concentration (5 to 80 mM) benzyl alcohol (BA) on the growth of S. typhimurium.

OCc1ccccc1 [BA, benzyl alcohol]
toxic effect on the growth of Salmonella: no toxic effect
